According to patent US3980794A, “Method for promoting growth of poultry with 3-(5-nitro-2-imidazolyl)pyrazoles” (Eli Lilly and Company, priority 1975, dated 1976):
Values after ≈ are worked out from the molar mass of the structure shown. Like-named read-outs stand apart in the source and are kept apart here.

Experiments:
[1] = tested on: Fusobacterium necrophorum 13859; experiment: Susceptibility of anaerobic bacteria, agar dilution; format: cell-based; conditions: read-out: 24 Hr. Minimum Inhibitory Concentration
[2] = tested on: Bacteroides fragilis sp. fragilis 1936B; experiment: as above; format: cell-based; conditions: 24 h, read-out: 24 Hr. Minimum Inhibitory Concentration
[3] = tested on: Propionibacterium acnes 79; experiment: as above; format: cell-based; conditions: read-out: 24 Hr. Minimum Inhibitory Concentration
[4] = tested on: Propionibacterium acnes 44; experiment: as above; format: cell-based; conditions: read-out: 24 Hr. Minimum Inhibitory Concentration
[5] = tested on: Bacteroides fragilis sp. thetaiotaomicron 1438; experiment: as above; format: cell-based; conditions: 24 h, read-out: 24 Hr. Minimum Inhibitory Concentration
[6] = tested on: Fusobacterium symbiosum 1470; experiment: as above; format: cell-based; conditions: read-out: 24 Hr. Minimum Inhibitory Concentration
[7] = tested on: Eubacterium aerofaciens 1235; experiment: as above; format: cell-based; conditions: read-out: 24 Hr. Minimum Inhibitory Concentration
[8] = tested on: Clostridium innocuum 1373; experiment: as above; format: cell-based; conditions: read-out: 24 Hr. Minimum Inhibitory Concentration
[9] = tested on: Bacteroides fragilis sp. fragilis 1877; experiment: as above; format: cell-based; conditions: 24 h, read-out: 24 Hr. Minimum Inhibitory Concentration
[10] = tested on: Clostridium perfringens 81; experiment: microbe, parasite or virus in culture; format: cell-based; conditions: Clostridium perfringens, 81, 24 h, read-out: 24 Hr. Minimum Inhibitory Concentration
[11] = tested on: Salmonella typhimurium; experiment: Control of infections caused by Salmonella typhimurium in chickens, subcutaneous (Experiment 2); format: in vivo; conditions: Salmonella enterica, sc, 144 h, 6 days, read-out: Survival Ratio (converted); for responders at 15 mg/kg: 15 mg./kg. subcutaneous; for responders at 30 mg/kg: 30 mg./kg. subcutaneous; for responders at 60 mg/kg: 60 mg./kg. subcutaneous
Protocol: The efficacy of the novel compounds in the control of infections caused by Salmonella typhimurium in chickens was evaluated in the following manner.
The test was carried out using day-old chicks weighing approximately 35 g. each. The chicks were divided into groups of 5 chicks per each dosage level. A portion of the chicks received the test compound which was suspended in 0.2 ml. of polyethylene glycol 200 and administered subcutanusly in the neck. […] All the chicks were challenged with a 1:200 dilution of a culture of the organism, 0.1 ml. of the dilution being injected into each chick in the leg intramuscularly. […] The test compounds are identified in the same manner as set forth in Experiment 1.
In the chart, column 1 lists the compounds tested; column 2, the dosage of test compound in mg./kg.; and column 3, the survival ratio.

[12] = tested on: Peptococcus anaerobius 1428; experiment: Susceptibility of anaerobic bacteria, agar dilution; format: cell-based; conditions: 24 h, read-out: 24 Hr. Minimum Inhibitory Concentration
[13] = tested on: Veillonella alcalescens 1; experiment: as above; format: cell-based; conditions: read-out: 24 Hr. Minimum Inhibitory Concentration
[14] = tested on: Bacteroides fragilis sp. vulgatus 1563; experiment: as above; format: cell-based; conditions: 24 h, read-out: 24 Hr. Minimum Inhibitory Concentration
[15] = tested on: Clostridium septicum 1128; experiment: as above; format: cell-based; conditions: 24 h, read-out: 24 Hr. Minimum Inhibitory Concentration
Protocol: (§1) The susceptibility of anaerobic bacteria, both gram positive and gram negative, to a representative number of the novel compounds of this application was determined using the agar dilution method. The bacteria used were isolated from patients hospitalized at the Indiana University Medical Center. The isolates were identified in the anaerobe laboratory of the Medical Center by the criteria established by Dowell et al., Laboratory Methods in Anaerobic Bacteriology. Public Health Serv. Publ. No. 1803 (1968) [Center for Disease Control, Atlanta, Ga.]; and by Smith et al., The Pathogenic Anaerobic Bacteria, pages 96-136 (1968) [Charles C. Thomas, Publisher, Springfield, Ill.]. All the organisms were maintained in chopped meat glucose medium (Scott Labs) at room temperature.
(§2) The method used for the agar dilution tests was based on the studies of Sutter et al., Antimicrob. Ag. Chemother. 3, 188-193 (1973). The strains of anaerobic bacteria were grown in 16 × 120 mm. tubes for 16 to 18 hours in Thioglycolate medium without indicator--135C (Becton, Dickinson and Co.), to which was added 5 mcg. of hemin per milliliter prior to autoclaving, plus 1 mg. of sodium bicarbonate and 0.1 mcg. of filter-sterilized menadione per milliliter after autoclaving. The growth tubes for the bacteria Veillonella alcalescens were additionally supplemented with 5 mg. of sodium lactate per milliliter. The strains were adjusted to the turbidity of the No. 1 McFarland standard in Thioglycolate medium without indicator--135C containing an additional 0.13 percent Bacto-agar (Difco). Each strain was then applied to the surface of the petri plate (100 mm. × 15 mm.) by means of a replicator.
(§3) For the agar dilution studies, two-fold dilutions of the test compounds were prepared in deionized water to which was then added laked sheep blood and filter-sterilized menadione so the concentrations after the agar dilution were 5 percent and 10 mcg./ml. respectively. An equal volume of double strength Brucella agar (Becton, Dickinson and Co.) was mixed with each dilution in a water bath held at 50°C. and then poured onto the petri plates.
(§4) All of the procedures were done inside a plastic glove box, except for the incubation of the growth tubes and the pouring of the plates. After the plates hardened, they were put inside the glove box for a minimum of two hours before they were inoculated. Generally, the glove box procedures of Aranki et al., Applied Microbiology 17, 568-576 (1969), were followed, but the following modifications were used. Dry materials were introduced into the glove box by evacuating the lock to 28 inches of mercury and filling once with nitrogen gas, followed by evacuating in the same manner and filling with an 80 percent nitrogen plus 10 percent CO2 plus 10 percent hydrogen gas mixture. Liquid media and agar plates were introduced into the glove box by evacuating the lock to 10 inches of mercury and filling with gas four times. The nitrogen gas was used to fill the lock for the first two cycles of evacuation, with the gas mixture described above used for the final two fillings.
(§5) All the plates were incubated at 37°C. in Gas Pak jars (Becton, Dickinson and Co.) containing palladium-coated alumina catalysts (reactivated after each use). The results of the agar dilution tests were read after about 24 hours of incubation. The minimum inhibitory concentration (MIC) was recorded as the lowest concentration of test compound at which there was no growth.
(§6) The results of these in vitro tests are recorded in Charts 11 and 12 which follow. The test compounds are identified in the same manner as in the previous experiments. The antibiotics cephalothin and erythromycin were also run simultaneously with the novel compounds of this application, for comparison purposes, and the results are included in Charts 11 and 12 below.

[16] = tested on: Clostridium septicum bovine; experiment: as above; format: cell-based; conditions: 24 h, read-out: 24 Hr. Minimum Inhibitory Concentration
Protocol: as §1, §2, §3, §4, §5, §6

[17] = tested on: Peptostreptococcus intermedius 1264; experiment: as above; format: cell-based; conditions: read-out: 24 Hr. Minimum Inhibitory Concentration
[18] = tested on: Actinomyces bovis 13684; experiment: as above; format: cell-based; conditions: read-out: 24 Hr. Minimum Inhibitory Concentration
[19] = tested on: Bacteroides fragilis sp. vulgatus 1211; experiment: as above; format: cell-based; conditions: 24 h, read-out: 24 Hr. Minimum Inhibitory Concentration
[20] = tested on: Clostridium ramosum 1313; experiment: as above; format: cell-based; conditions: read-out: 24 Hr. Minimum Inhibitory Concentration
[21] = Cutibacterium acnes, 24 h, Propionibacterium acnes 44
[22] = Veillonella parvula, 24 h, Veillonella alcalescens 1
[23] = 24 h, Peptostreptococcus intermedius 1264
[24] = Thomasclavelia ramosa, 24 h, Clostridium ramosum 1313
[25] = Fusobacterium necrophorum, 13859, 24 h
[26] = Collinsella aerofaciens, 1235, 24 h
[27] = [Clostridium] innocuum, 1373, 24 h
[28] = Thomasclavelia ramosa, 1313, 24 h

SMILES	MIC [4, 21] [µg/mL]	MIC [10] [µg/mL]	responders at 15 mg/kg [11] [%]	MIC [15] [µg/mL]	MIC [16] [µg/mL]	MIC [17, 23] [µg/mL]	MIC [1, 25] [µg/mL]	MIC ([2]; Bacteroides fragilis) [µg/mL]	MIC ([3]; Cutibacterium acnes, 79, 24 h) [µg/mL]	MIC ([5]; Bacteroides fragilis) [µg/mL]	MIC ([6]; Fusobacterium, 1470, 24 h) [µg/mL]	MIC [7, 26] [µg/mL]	MIC [8, 27] [µg/mL]	MIC ([9]; Bacteroides fragilis) [µg/mL]	MIC [12] [µg/mL]	MIC ([13]; Veillonella parvula, 1, 24 h) [µg/mL]	MIC ([14]; Bacteroides fragilis) [µg/mL]	MIC ([18]; Actinomyces bovis, 13684, 24 h) [µg/mL]	MIC ([19]; Bacteroides fragilis) [µg/mL]	MIC [20, 28] [µg/mL]	further results
CC(=O)Nc1c(C#N)c(-c2ncc([N+](=O)[O-])n2C)nn1C [Compound 8, N-[4-cyano-1-methyl-3-(1-methyl-5-nitro-2-imidazolyl)pyrazol-5-yl]acetamide]	> 8	1 (≈ 3.46 µM)	0	0.25 (≈ 0.864 µM)	1 (≈ 3.46 µM)	4 (≈ 13.8 µM)	–	–	–	–	–	–	–	–	–	–	–	–	–	–	MIC ([1]; 24 h, Fusobacterium necrophorum 13859): 0.06 µg/mL (≈ 0.207 µM); MIC ([2]; Bacteroides fragilis sp. fragilis 1936B): 0.25 µg/mL (≈ 0.864 µM); MIC ([3]; Cutibacterium acnes, 24 h, Propionibacterium acnes 79): 0.03 µg/mL (≈ 0.104 µM); MIC ([5]; Bacteroides fragilis sp. thetaiotaomicron 1438): 0.5 µg/mL (≈ 1.73 µM); MIC ([6]; 24 h, Fusobacterium symbiosum 1470): 0.03 µg/mL (≈ 0.104 µM); MIC ([7]; Collinsella aerofaciens, 24 h, Eubacterium aerofaciens 1235): 0.125 µg/mL (≈ 0.432 µM); MIC ([8]; 24 h, Clostridium innocuum 1373): 1 µg/mL (≈ 3.46 µM); MIC ([9]; Bacteroides fragilis sp. fragilis 1877): 0.25 µg/mL (≈ 0.864 µM); responders at 30 mg/kg [11]: 20%; responders at 60 mg/kg [11]: 60%; MIC ([12]; Peptococcus anaerobius 1428): 1 µg/mL (≈ 3.46 µM); MIC [13, 22]: 0.03 µg/mL (≈ 0.104 µM); MIC ([14]; Bacteroides fragilis sp. vulgatus 1563): 0.25 µg/mL (≈ 0.864 µM); MIC ([18]; 24 h, Actinomyces bovis 13684): 4 µg/mL (≈ 13.8 µM); MIC ([19]; Bacteroides fragilis sp. vulgatus 1211): 0.25 µg/mL (≈ 0.864 µM); MIC [20, 24]: 0.25 µg/mL (≈ 0.864 µM)
Cn1c([N+](=O)[O-])cnc1-c1nn(CCO)c(N)c1C#N [Compound 14, 5-Amino-1-(2-hydroxyethyl)-3-(1-methyl-5-nitro-2-imidazolyl)pyrazole-4-carbonitrile]	> 32	< 0.125	6.67	< 0.125	< 0.125	1 (≈ 3.61 µM)	< 0.125	< 0.125	< 0.125	< 0.125	< 0.125	< 0.125	< 0.125	< 0.125	< 0.125	< 0.125	< 0.125	< 0.125	< 0.125	< 0.125	responders at 7.5 mg/kg ([11]; 7.5 mg./kg. subcutaneous): 20%; responders at 30 mg/kg [11]: 40%; responders at 60 mg/kg [11]: 93.3%
CNNC=Nc1c(C#N)c(-c2ncc([N+](=O)[O-])n2C)nn1C [Compound 21, N-[4-Cyano-1-methyl-3-(1-methyl-5-nitroimidazol-2-yl)pyrazol-5-yl]formimidic acid, 2-methyl hydrazide]	32 (≈ 106 µM)	< 0.125	–	< 0.125	< 0.125	0.5 (≈ 1.65 µM)	< 0.125	< 0.125	< 0.125	< 0.125	< 0.125	< 0.125	< 0.125	< 0.125	< 0.125	< 0.125	< 0.125	< 0.125	< 0.125	< 0.125	–
CCCn1nc(-c2ncc([N+](=O)[O-])n2C)c(C#N)c1N [Compound 22, 5-Amino-1-(n-propyl)-3-(1-methyl-5-nitro-2-imidazolyl)pyrazole-4-carbonitrile]	> 32	< 0.125	–	< 0.125	< 0.125	1 (≈ 3.63 µM)	< 0.125	< 0.125	< 0.125	< 0.125	< 0.125	< 0.125	< 0.125	< 0.125	< 0.125	< 0.125	< 0.125	< 0.125	< 0.125	< 0.125	–
CC[C@H]1OC(=O)[C@H](C)[C@@H](O[C@H]2C[C@@](C)(OC)[C@@H](O)[C@H](C)O2)[C@H](C)[C@@H](O[C@@H]2O[C@H](C)C[C@H](N(C)C)[C@H]2O)[C@](C)(O)C[C@@H](C)C(=O)[C@H](C)[C@@H](O)[C@]1(C)O [Erythromycin, erythromycin, reference compound]	–	< 0.5	–	1 (≈ 1.36 µM)	< 0.5	–	2 (≈ 2.73 µM)	4 (≈ 5.45 µM)	< 0.5	4 (≈ 5.45 µM)	< 0.5	1 (≈ 1.36 µM)	> 128	4 (≈ 5.45 µM)	1 (≈ 1.36 µM)	–	2 (≈ 2.73 µM)	1 (≈ 1.36 µM)	2 (≈ 2.73 µM)	–	MIC ([4]; Cutibacterium acnes, 44, 24 h): < 0.5 µg/mL; MIC [13, 22]: 1 µg/mL (≈ 1.36 µM); MIC ([17]; Peptostreptococcus, 1264, 24 h): 8 µg/mL (≈ 10.9 µM); MIC [20, 24]: > 128 µg/mL
